Test results taken from US4540700A, “Treatment of diabetic complications with certain spiro-imidazolidine-diones” (Alcon Laboratories, Inc., priority 1984, dated 1985).

How the values were obtained:
cataracts in rats = experiment: prevention or retardation of cataracts in rats fed 30% galactose diet (compound in chow); format: in vivo, rat; details: for inhibition of cataract development: 4 and 8 Mg/Kg/day; for condition of rat eyes: 4 and 8 Mg/Kg/day in 30% galactose chow, 32 days
Text: (§1) The compounds were formulated in ground Purina Rodent Laboratory Chow, Number 5001, containing 30% galactose.
Eighty-four rats were divided into the following seven groups (six treated groups having different compound intake levels and an untreated galactose control) having different compound intake levels as shown in Table IV.
(§2) The galactose control group (twelve rats, twenty-four eyes) were fed ground Purina Rodent Laboratory Chow, No. 5001 containing 30% by weight galactose. The six test compound groups (twelve rats, twenty-four eyes per group) were fed the same 30% galactose chow except that the chow was formulated to deliver […] of the indicated test compound (see Table IV).
It is known that young male rats fed a 30% galactose diet (As previously described) will develop lenticular changes within several days which predicatively progress in time irreversibly to cataracts. Aldose reductase inhibitor compounds which are in vivo active will delay or prevent galactose induced cataractogenesis. In this in vivo experiment, the test aldose reductase inhibitor compounds were formulated in the 30% galactose feed to evaluate their in vivo anticataract activity.

[1] = test system: nerve conduction velocities of the sciatic nerve; experiment: Nerve conduction study in diabetic rats; format: in vivo, male albino rats; details: for nerve conduction velocity as a percent of normal, first inflection / nerve conduction velocity as a percent of normal, first peak / nerve conduction velocity as a percent of normal, second inflection / nerve conduction velocity as a percent of normal, second peak: 15 weeks
Method: (§3) The purpose is to evaluate the efficacy of the racemic 2-fluoro compound (L), an aldose reductase inhibitor, for inhibiting cataractogenesis and nerve conduction deficit in diabetic rats.
(§4) Diabetes was induced in male albino rats by the intravenous injection of 50 mg/kg streptozotocin. The diabetic state was verified by measuring the blood glucose level in each animal before and after injection. […] A fourth group consisted of non-diabetic and otherwise normal rats which remained untreated. Treatments were given once daily by oral […], and continued through the day prior to sacrifice of the animal.
(§5) Each animal was weighed on a weekly basis. Both lenses of each animal were examined by ophthalmoscope periodically and any cataractous changes were graded and noted. At the end of 15 weeks, each animal was anesthetized using pentobarbital and the nerve conduction velocities of the sciatic nerve were measured. After an animal was sacrificed, the sciatic nerve and other tissues and organs were taken, weighed, and frozen for future biochemical analyses.

Human Aldose Reductase = Human Aldose Reductase (Homo sapiens, UniProt P15121); experiment: Human Aldose Reductase Inhibition; format: biochemical; details: for activity against human aldose reductase as compared to rat aldose reductase: human vs rat; for more active against human aldose reductase than the Sarges resolved compound: relative to Sarges resolved
[2] = test system: cataractogenesis in diabetic rats; experiment: cataractous changes in streptozotocin diabetic rats; format: in vivo, male albino rats; details: 15 weeks
Method: as §3, §4, §5
Cataractous changes were graded on a scale of 0 to 4; 0 denoting a normal looking lens with no changes and 4 denoting opacification involving the whole lens.

Rat Aldose Reductase = Rat Aldose Reductase (Rattus norvegicus, UniProt P07943); experiment: Rat Aldose Reductase Inhibition; format: biochemical
Text: Biophysical Chemistry, 8 (1978) 81-85; P. F. Kador, L. O. Merola and J. H
Kinoshita Documenta Ophthamologica, 18 (1979) 117.

[3] = test system: galactitol levels in the lenses; experiment: galactitol levels in lenses of galactose-fed rats at Day 32; format: in vivo, rat; set-up: average galactitol levels in lenses: unit not given here; details: for average galactitol levels in lenses: Day 32
Text: as §1, §2

In the case of `O=C1NC(=O)C2(N1)c1ccccc1-c1ccc(F)cc12` (racemic) [Compound L, dl-Spiro(2-fluorofluoren-9,4'-imidazolidine)-2',5'-dione], the “inhibition of cataract development” value (cataracts in rats) is reported as “inhibit cataract development”, the “condition of rat eyes” value (cataracts in rats) is reported as “asymptomatic” and the “nerve conduction velocity as a percent of normal, first inflection” value ([1]; 8 mg/kg once daily oral) is reported as 93.3%. The “nerve conduction velocity as a percent of normal, first peak” value ([1]; 8 mg/kg once daily oral) was 88.2%, the “nerve conduction velocity as a percent of normal, second inflection” value ([1]; 8 mg/kg once daily oral) was 87.4% and the “nerve conduction velocity as a percent of normal, second peak” value ([1]; 8 mg/kg once daily oral) was 85.0%. The “statistical significance of improvement in nerve conduction” value ([1]; 8 mg/kg, by comparison to the untreated diabetic rats) was “significant”, the inhibition at 100 µM (Human Aldose Reductase; 10^-4, human, read-out: In vitro Aldose Reductase Inhibition) was 100% and the inhibition at 10 µM (Human Aldose Reductase; 10^-5, human, read-out: In vitro Aldose Reductase Inhibition) was 88%. It also gave an inhibition at 1 µM (Human Aldose Reductase; 10^-6, human, read-out: In vitro Aldose Reductase Inhibition) of 81%, an inhibition at 0.1 µM (Human Aldose Reductase; 10^-7, human, read-out: In vitro Aldose Reductase Inhibition) of 53% and an inhibition at 0.01 µM (Human Aldose Reductase; 10^-8, human, read-out: In vitro Aldose Reductase Inhibition) of 18%. For the same molecule, the IC50 (Human Aldose Reductase; human) was 91 nM, the “activity against human aldose reductase as compared to rat aldose reductase” value (Human Aldose Reductase) was “as active or more active” and the “more active against human aldose reductase than the Sarges resolved compound” value (Human Aldose Reductase) was 7 X. For the same molecule, the “prevention of lens opacification in diabetic rats” value ([2]; 8 mg/kg once daily oral) was “effective in preventing opacification of the lens”, the IC50 (Rat Aldose Reductase) was 150 nM and the “average galactitol levels in lenses” value ([3]; 4 Mg/Kg/day) was 6.274. The “average galactitol levels in lenses” value ([3]; 8 Mg/Kg/day) was 5.074.
With `O=C1NC(=O)C2(CCOc3ccc(F)cc32)N1` (racemic) [Sarges Racemic, dl-spiro-(6-fluorochroman-4,4'-imidazolidine)-2',5'-dione, reference compound] the “Times to Cataract, Mean” value (cataracts in rats; 4 Mg/Kg/day) was 15.68 days, the “average time to snowflake-like opacities” value (cataracts in rats; 4 Mg/Kg/day) was 15.7 days and the “condition of rat eyes” value (cataracts in rats) was “developed snowflake-like opacities”. For the same molecule, the “time to cataract, days less than at 8 Mg/Kg/day” value (cataracts in rats; 4 vs 8 Mg/Kg/day, average) was 4 days, the “Times to Cataract, Mean” value (cataracts in rats; 8 Mg/Kg/day) was 19.68 days and the “average time to snowflake-like opacities” value (cataracts in rats; 8 Mg/Kg/day) was 19.7 days. For the same molecule, the “nerve conduction velocity as a percent of normal, first inflection” value ([1]; 16 mg/kg once daily oral) was 88.6%, the “nerve conduction velocity as a percent of normal, first peak” value ([1]; 16 mg/kg once daily oral) was 83.9% and the “nerve conduction velocity as a percent of normal, second inflection” value ([1]; 16 mg/kg once daily oral) was 82.4%. The “nerve conduction velocity as a percent of normal, second peak” value ([1]; 16 mg/kg once daily oral) was 79.1%, the “prevention of lens opacification in diabetic rats” value ([2]; 16 mg/kg once daily oral, 30 lenses) was “all appeared normal” and the “average galactitol levels in lenses” value ([3]; 4 Mg/Kg/day) was 9.238. For the same molecule, the “average galactitol levels in lenses” value ([3]; 8 Mg/Kg/day) was 9.107.
With `O=C1NC(=O)C2(N1)c1cc(F)ccc1-c1ccc(F)cc12` [M, Spiro-[2,7-difluorofluoren-9,4'-imidazolidine]-2',5'-dione] the “inhibition of cataract development” value (cataracts in rats) was “inhibit cataract development”, the “condition of rat eyes” value (cataracts in rats) was “asymptomatic” and the “In vitro Aldose Reductase Inhibition” value (Human Aldose Reductase; 10^-5, human) was 81. For the same molecule, the “In vitro Aldose Reductase Inhibition” value (Human Aldose Reductase; 10^-6, human) was 71, the “In vitro Aldose Reductase Inhibition” value (Human Aldose Reductase; 10^-7, human) was 64 and the “In vitro Aldose Reductase Inhibition” value (Human Aldose Reductase; 10^-8, human) was 35. For the same molecule, the IC50 (Human Aldose Reductase; human) was 52 nM, the “activity against human aldose reductase as compared to rat aldose reductase” value (Human Aldose Reductase) was “as active or more active” and the “more active against human aldose reductase than the Sarges resolved compound” value (Human Aldose Reductase) was 12 X. For the same molecule, the IC50 (Rat Aldose Reductase) was 44 nM, the “average galactitol levels in lenses” value ([3]; 4 Mg/Kg/day) was 2.560 and the “potency relative to the 2-fluoro compound” value ([3]; 4 and 8 Mg/Kg/day) was “more potent”. For the same molecule, the “average galactitol levels in lenses” value ([3]; 8 Mg/Kg/day) was 1.399.
